# Key:
# Type in all cases: cell-based
# [1] = tested on: recombinant CHO cell line; assay: Cell viability of recombinant CHO culture, Trypan blue dye-exclusion; details: 1.2 mM butyrate, 32° C., after 12 days, 2 L bioreactor
# [2] = tested on: recombinant CHO cell line; assay: as above
# Procedure: (§1) At first, the optimal conditions related to butyrate concentration and temperature in a laboratory scale were determined. Preliminary experiments aimed at optimizing the Na-butyrate concentration were performed in a 1 L culture of the recombinant CHO cell line (1×10^6 cells/ml), in order to achieve the best tc-uPA (HMW and LMW) production and the higher cell viability after 5 days of cultivation in spinner-flasks.
# (§2) In table 1 are reported the cell viability and the uPA yield after 5 days cultivation in 1 L Spinner-flask culture at 37° C. and at different Na-butyrate concentrations. uPA activity was followed by a chromogenic assay using the Pefachrome® UK (54-46) (Pentapharm, LTD, Basel, Switzerland) as chromogenic substrate, according to the manufacturer's instructions; the cell viability was followed every day and measured microscopically after Trypan blue dye-exclusion method, as described in Doyle et al. A, Griffiths, J B and Newell, D G (Eds.) (1994), in “Cell & Tissue Culture: Laboratory Procedures”. John Wiley & Sons. New York.
# (§3) A second set of experiments was performed at 1.2 mM butyrate, in a 5-days fermentation to determine the optimal temperature in a 2 L culture (1.5-2×10^6 cells/ml) of the recombinant CHO cell line in bioreactor.
# [3] = tested on: recombinant CHO cell line; assay: tc-uPA activity in culture of recombinant CHO cells, chromogenic assay (Pefachrome UK); details: 1.2 mM butyrate, 32° C., after 12 days, 2 L bioreactor
# [4] = tested on: recombinant CHO cell line; assay: as above; details: for Activity of tc-uPA: 1 L Spinner-flask culture, 37° C., 5 days; for Activity on the chromogenic substrate: average of four fermentations
# Procedure: as §1, §2, §3
# When the cellular density reached values of about 2×10^6 living cells/ml, the cells were separated from the exhausted medium by tangential filtration (or centrifugation). Cells were then resuspended in the bioreactor in the same original volume of fresh medium CHOMaster® with the addition of sodium butyrate to achieve a final concentration of 1.2 mM.
# The production of active u-PA (tc-UPA HMW and LMW) was monitored by a chromogenic test on a specific substrate, Pefachrome® UK. A progressive increase of the activity was observed up to maximal values as high as 7000 IU/ml, achieved after 4-5 days of fermentation. At this point the cells were harvested and subsequently discarded and the exhausted culture medium, containing tc-uPA, was further processed for purification.
compound,measurement,setting,value
"CCCC(=O)[O-].[Na+] [Na-Butyrate, sodium butyrate]",Cell viability,[1],63%
same,Cell viability,"[2]; 0.6 mM Na-Butyrate, 1 L Spinner-flask culture, 37° C., 5 days",83%
same,Cell viability,"[2]; 1.2 mM Na-Butyrate, 1 L Spinner-flask culture, 37° C., 5 days",76%
same,Cell viability,"[2]; 1.2 mM Na-Butyrate, 32° C., 5 days, 2 L bioreactor",84%
same,Cell viability,"[2]; 1.2 mM Na-Butyrate, 34° C., 5 days, 2 L bioreactor",67%
same,Cell viability,"[2]; 1.2 mM Na-Butyrate, 37° C. (control), 5 days, 2 L bioreactor",53%
same,Cell viability,"[2]; 2.5 mM Na-Butyrate, 1 L Spinner-flask culture, 37° C., 5 days",56%
same,Cell viability,"[2]; 1 day after addition of 1.2 mM Na-butyrate, 34° C., 2 L bioreactor, average of four fermentations",87 ± 6%
same,Cell viability,"[2]; 2 days after addition of 1.2 mM Na-butyrate, 34° C., 2 L bioreactor, average of four fermentations",81 ± 12%
same,Cell viability,"[2]; 3 days after addition of 1.2 mM Na-butyrate, 34° C., 2 L bioreactor, average of four fermentations",78 ± 15%
same,Cell viability,"[2]; 4 days after addition of 1.2 mM Na-butyrate, 34° C., 2 L bioreactor, average of four fermentations",72 ± 14%
same,Cell viability,"[2]; 5 days after addition of 1.2 mM Na-butyrate, 34° C., 2 L bioreactor, average of four fermentations",67 ± 10%
same,activity (tc-uPA),[3],3961 U/ml
same,Activity of tc-uPA,[4]; 0.6 mM Na-Butyrate,526 IU/ml
same,Activity of tc-uPA,[4]; 1.2 mM Na-Butyrate,959 IU/ml
same,Activity of tc-uPA (5 days cultivation),"[4]; 1.2 mM Na-Butyrate, 32° C., 2 L bioreactor",800 IU/ml
same,Activity of tc-uPA (5 days cultivation),"[4]; 1.2 mM Na-Butyrate, 34° C., 2 L bioreactor",5043 IU/ml
same,Activity of tc-uPA (5 days cultivation),"[4]; 1.2 mM Na-Butyrate, 37° C. (control), 2 L bioreactor",1830 IU/ml
same,maximal activity on Pefachrome UK,"[4]; 1.2 mM sodium butyrate, 34° C., after 4-5 days of fermentation, 2 L bioreactor",≤ 7000 IU/ml
same,Activity of tc-uPA,[4]; 2.5 mM Na-Butyrate,361 IU/ml
same,Activity on the chromogenic substrate,"[4]; 1 day after addition of 1.2 mM Na-butyrate, 34° C., 2 L bioreactor",155 ± 23%
same,Activity on the chromogenic substrate,"[4]; 2 days after addition of 1.2 mM Na-butyrate, 34° C., 2 L bioreactor",662 ± 32%
same,Activity on the chromogenic substrate,"[4]; 3 days after addition of 1.2 mM Na-butyrate, 34° C., 2 L bioreactor",1995 ± 13%
same,Activity on the chromogenic substrate,"[4]; 4 days after addition of 1.2 mM Na-butyrate, 34° C., 2 L bioreactor",3170 ± 23%
same,Activity on the chromogenic substrate,"[4]; 5 days after addition of 1.2 mM Na-butyrate, 34° C., 2 L bioreactor",5043 ± 13%
